Laboratory results reported in US20210283139A1, “BIFUNCTIONAL MOLECULES FOR TARGETING UCHL5” (AMPHISTA THERAPEUTICS LTD, priority 2018, published 2021).

Experiments:
Assay type in all cases: cell-based
Brd4 (L) = target: T1, Brd4 (L) (Homo sapiens, UniProt O60885); assay: Time-dependent BET degradation, immunoblot, HeLa cells; design: dose or concentration left out as unconfirmed; conditions: timecourse 0-8 h
T1 construct: endogenous in cells; host or cells: HEK293, HeLa
Description: (§1) Cell culture. HeLa (CCL-2) and HEK293 (CRL-1573) cells were purchased from ATCC and cultured in DMEM medium (Gibco) supplemented with 10% FBS, 100 μg/mL penicillin/streptomycin and L-glutamine. Cells were grown at 37° C. and 5% CO2, and were kept no longer than 30 passages. All cell lines were routinely tested for mycoplasma contamination using MycoAlert kit from Lonza.
(§2) Immunoblotting. proteins were separated by SDS-PAGE on NuPage 4-12% Bis-Tris gels, followed by transfer to Amersham Protran 0.45 NC nitrocellulose membrane (GE Healthcare) using wet transfer. Membranes were blocked using 5% w/v milk in Tris-buffered saline (TBS) with 0.1% Tween-20. Blots were probed (overnight at 4° C.) using anti-Brd2 (Abcam ab139690, 1:2,000 dilution), anti-Brd3 (Abcam ab50818, 1:500 dilution), and anti-Brd4 (Abcam ab128874, 1:1,000 dilution) primary antibodies, as appropriate. The next day, blots were washed with TBST and incubated (1 hr at RT) with anti-Tubulin hFAB-rhodamine (BioRad, 12004166) primary antibody, and either anti-rabbit IRDye 800CW (Licor 1:10,000 dilution) or anti-mouse IRDye 800CW (Licor 1:10,000 dilution) secondary antibody. Blots were developed using a Bio-Rad ChemiDoc MP Imaging System, and band quantification was performed using Image Studio software (LiCor). Band intensities were normalized to the tubulin loading control and reported as % of the average 0.1% DMSO vehicle intensity. Degradation data was plotted and analysed using Prism (Graphpad, version 8).
(§3) HeLa (3×10^5) and HEK293 (0.5×10^6) cells were seeded in standard 6-well plates (2 mL medium) overnight before treatment with compounds at 1 μM concentration, with a final DMSO concentration of 0.1% v/v. After incubation for the desired time (0-8 h), cells were washed with DPBS (Gibco) and lysed using 85 μL RIPA buffer (Sigma-Aldrich) supplemented with cOmplete Mini EDTA-free protease inhibitor cocktail (Roche) and benzonase. Lysates were clarified by centrifugation (20,000 g, 10 min, 4° C.) and the total protein content of the supernatant was quantified using a Bradford colorimetric assay. Samples were prepared using equal amounts of total protein and LDS sample buffer (Invitrogen).
(§4) Representative blots in FIG. 4 show depletion of Brd2, Brd3 and Brd4 protein levels following 1 μM treatment at various time points with representative compounds. Band intensities were normalized to the β-tubulin loading control and reported as % of the average 0.1% DMSO vehicle intensity, with each point representing mean±SEM of two independent experiments (n=2). Degradation data was plotted and analysed using Prism (Graphpad, version 8).
(§5) T½ (h) is the time required to deplete 50% of the protein relative to DMSO

Brd4 (S) = target: T2, Brd4 (S) (Homo sapiens, UniProt O60885); assay: as above; design: dose or concentration left out as unconfirmed; conditions: timecourse 0-8 h
T2 construct: endogenous in cells; host or cells: HEK293, HeLa
Description: as §1, §2, §3, §4, §5

MV4-11 cells = assay: Anti-proliferative effect, CellTiter-Glo assay; conditions: MV4-11, CellTiter-Glo, 72 h incubation, 5 μM and below
Description: The anti-proliferative effects of representative compounds were measured using the CellTiter-Glo assay (Promega). MV4-11 cells were incubated in a sterile, white, clear-bottomed 384-well cell-culture microplate (Greiner Bio-one), at 2× concentration in RPMI media and a volume of 25 μl. The next day, test compounds were serially diluted in RPMI media to 2× concentration, then added to cells to make a final volume of 50 μl. After a 72 h incubation 25 μl of CellTiter-Glo reagent was added to each well. Following 15 minute incubation the luminescence signal was read on a Pherastar FS. The final concentration of assay components are as follows: 3×10^5 cells/mL, 0.05% DMSO, 5 μM and below compound. Data (FIG. 11) was processed and dose-response curves generated using Prism 8 (Graphpad).

Brd2 [1] = target: T3, Brd2 (Homo sapiens, UniProt P25440); assay: Concentration-dependent BET degradation, immunoblot, HeLa cells; design: endogenous in cells; host or cells: HeLa; conditions: Brd2, 6 h treatment, 1 nM-10 μM; for Dmax: read-out: Dmax (%) maximum degradation observed
T3 sequence (P25440 whole entry): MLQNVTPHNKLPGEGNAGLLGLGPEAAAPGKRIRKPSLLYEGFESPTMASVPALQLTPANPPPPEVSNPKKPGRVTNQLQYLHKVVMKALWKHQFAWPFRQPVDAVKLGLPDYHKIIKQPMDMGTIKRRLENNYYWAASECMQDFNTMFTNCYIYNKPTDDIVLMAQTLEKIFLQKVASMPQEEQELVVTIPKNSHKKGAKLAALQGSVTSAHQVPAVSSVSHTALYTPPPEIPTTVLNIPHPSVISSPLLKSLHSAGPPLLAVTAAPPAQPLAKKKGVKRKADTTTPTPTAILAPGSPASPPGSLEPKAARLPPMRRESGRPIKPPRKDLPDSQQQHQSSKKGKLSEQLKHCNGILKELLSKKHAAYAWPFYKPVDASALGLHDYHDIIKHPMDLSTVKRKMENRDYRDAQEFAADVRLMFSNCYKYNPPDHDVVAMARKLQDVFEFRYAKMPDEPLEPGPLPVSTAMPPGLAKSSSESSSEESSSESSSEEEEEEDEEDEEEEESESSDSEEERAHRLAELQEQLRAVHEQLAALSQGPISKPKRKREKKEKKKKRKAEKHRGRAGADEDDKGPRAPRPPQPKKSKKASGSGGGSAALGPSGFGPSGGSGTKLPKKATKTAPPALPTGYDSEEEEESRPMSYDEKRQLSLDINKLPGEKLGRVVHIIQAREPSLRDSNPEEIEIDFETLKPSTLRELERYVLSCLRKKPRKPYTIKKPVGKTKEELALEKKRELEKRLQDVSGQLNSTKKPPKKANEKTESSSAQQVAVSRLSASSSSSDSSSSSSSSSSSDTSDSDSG
Description: as §1, §2
as §3, with “(5×10^5)” for “(3×10^5)”, “(1×10^6)” for “(0.5×10^6)”, “the desired concentration (1 nM-10 μM),” for “1 μM concentration,”, “6 h treatment time,” for “incubation for the desired time (0-8 h),”, “(20,000g,” for “(20,000 g,”, “(Invitrogen.” for “(Invitrogen).”
(§6) Representative blots in FIG. 3 show depletion of Brd2, Brd3 and Brd4 protein levels following treatment with increasing concentrations of representative compounds. Band intensities were normalized to the β-tubulin loading control and reported as % of the average 0.1% DMSO vehicle intensity, with each point representing mean±SEM of two independent experiments (n=2). Degradation data was plotted and analysed using Prism (Graphpad, version 8)

Brd3 [2] = target: T4, Brd3 (Homo sapiens, UniProt Q15059); assay: as above; design: endogenous in cells; host or cells: HeLa; conditions: Brd3, 6 h treatment, 1 nM-10 μM; for Dmax: read-out: Dmax (%) maximum degradation observed
T4 sequence (Q15059 whole entry): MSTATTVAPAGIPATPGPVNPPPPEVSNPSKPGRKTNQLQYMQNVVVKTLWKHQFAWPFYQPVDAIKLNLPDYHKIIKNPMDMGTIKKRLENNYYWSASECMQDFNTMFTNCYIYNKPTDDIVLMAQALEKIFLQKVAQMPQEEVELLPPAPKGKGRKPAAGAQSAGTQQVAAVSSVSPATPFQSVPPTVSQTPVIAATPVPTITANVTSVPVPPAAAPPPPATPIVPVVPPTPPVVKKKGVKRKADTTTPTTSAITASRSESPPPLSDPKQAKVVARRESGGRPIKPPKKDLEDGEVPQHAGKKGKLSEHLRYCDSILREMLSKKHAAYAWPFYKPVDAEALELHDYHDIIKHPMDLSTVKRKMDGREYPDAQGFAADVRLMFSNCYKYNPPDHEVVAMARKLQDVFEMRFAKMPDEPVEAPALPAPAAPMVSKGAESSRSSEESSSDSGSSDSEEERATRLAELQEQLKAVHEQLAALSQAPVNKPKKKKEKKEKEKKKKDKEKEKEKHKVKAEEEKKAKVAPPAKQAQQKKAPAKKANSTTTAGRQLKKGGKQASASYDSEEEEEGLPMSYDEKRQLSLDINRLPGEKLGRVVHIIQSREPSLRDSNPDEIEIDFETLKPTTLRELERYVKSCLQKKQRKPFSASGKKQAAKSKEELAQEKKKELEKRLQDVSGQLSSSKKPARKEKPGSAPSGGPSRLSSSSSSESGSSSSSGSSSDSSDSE
Description: as §1, §2
as §3, with “(5×10^5)” for “(3×10^5)”, “(1×10^6)” for “(0.5×10^6)”, “the desired concentration (1 nM-10 μM),” for “1 μM concentration,”, “6 h treatment time,” for “incubation for the desired time (0-8 h),”, “(20,000g,” for “(20,000 g,”, “(Invitrogen.” for “(Invitrogen).”
as §6

Brd2 [3] = target: T3, Brd2; assay: Time-dependent BET degradation, immunoblot, HEK293 cells; design: endogenous in cells; host or cells: HEK293; conditions: HEK293, Brd2, 1 μM, timecourse 0-8 h
Description: as §1, §2, §3, §4, §5

Brd3 [4] = target: T4, Brd3; assay: as above; design: endogenous in cells; host or cells: HEK293; conditions: HEK293, Brd3, 1 μM, timecourse 0-8 h
Description: as §1, §2, §3, §4, §5

Brd4 = target: T5, Brd4 (Homo sapiens, UniProt O60885); assay: Negative SAR: Brd4 immunoblot in HEK293 cells, active vs negative control; conditions: HEK293, 1 μM, 6 h, three independent treatments
T5 construct: endogenous in cells; host or cells: HEK293, HAP1, MV4-11
Description: as §2
HEK293 (1×10^6) cells incubated with DMSO, 1 μM 05IB11 or 1 μM 05IB6 for 6 h with a final DMSO concentration of 0.1% v/v. Cells from three independent treatments (n=3) were lysed with RIPA buffer and immunoblotted for Brd4 and β-tubulin.

| Structure (SMILES) | Dmax (Brd4 (L)) [%] | Dmax (Brd4 (S)) [%] | cytotoxicity profile (anti-proliferative effect) (MV4-11 cells) | DC50 (Brd2 [1]) [nM] | Dmax (Brd2 [1]) [%] | DC50 (Brd3 [2]) [nM] | Dmax (Brd3 [2]) [%] | Dmax at 1 µM (Brd2 [3]) [%] | Dmax at 1 µM (Brd3 [4]) [%] | Brd4 levels (Brd4) |
| --- | --- | --- | --- | --- | --- | --- | --- | --- | --- | --- |
| CCCC(NC(=O)/C(C#N)=C/c1nccs1)c1ccc(OCCOCCOCCOCCOCCOCCOCCNC(=O)c2ccc(-c3ccc4c(c3)[C@H](Nc3ccc(Cl)cc3)C[C@H](C)N4C(C)=O)cc2)cc1 (stereo partly shown) [Example 05IB9] | 100 | 100 | distinct from I-BET726 and inactive 05IB11 | 51 to 500 | ≥ 71 | ≤ 50 | 51 to 70 | 73 | 60 |  |
| CCCC(NC(=O)/C(C#N)=C/c1cccc(Br)n1)c1ccc(OCC=NOCC(=O)NCCOCCOCCOCCOCCOCCNC(=O)c2ccc3c(c2)[C@H](Nc2ccc(Cl)cc2)C[C@H](C)N3C(C)=O)cc1 (stereo partly shown) [Example 05IB3] | 79 | 100 | distinct from I-BET726 and inactive 05IB11 | 51 to 500 | ≥ 71 | 51 to 500 | ≥ 71 | 83 | 100 |  |
| CCCC(NC(=O)/C(C#N)=C/c1cccc(Br)n1)c1ccc(OCCOCCOCCOCCOCCOCCOCCNC(=O)c2ccc(-c3ccc4c(c3)[C@H](Nc3ccc(Cl)cc3)C[C@H](C)N4C(C)=O)cc2)cc1 (stereo partly shown) [Example 05IB6] | 100 | 100 | distinct from I-BET726 and inactive 05IB11 | ≤ 50 | ≥ 71 | ≤ 50 | ≥ 71 | 76 | 74 | significant depletion |
